Results taken from PubChem BioAssay (NCI).
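How tested: cells in 96-well plates exposed to compound for 48 hours at five concentrations. The concentration for full growth arrest is given as TGI.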

Tests used:
Experiment in all cases: NCI anticancer screen, dose series, 48 h
SK-MEL-28 melanoma = test system: SK-MEL-28 melanoma
MCF7 breast = test system: MCF7 breast
SR leukemia = test system: SR leukemia
SF-295 CNS = test system: SF-295 CNS
SNB-19 CNS = test system: SNB-19 CNS
HT29 colon = test system: HT29 colon
SK-OV-3 ovarian = test system: SK-OV-3 ovarian
U251 CNS = test system: U251 CNS
EKVX NSCLC = test system: EKVX NSCLC
SK-MEL-2 melanoma = test system: SK-MEL-2 melanoma
MDA-MB-435 = test system: MDA-MB-435
A549 NSCLC = test system: A549 NSCLC
RPMI-8226 leukemia = test system: RPMI-8226 leukemia
UACC-62 melanoma = test system: UACC-62 melanoma
LOX IMVI melanoma = test system: LOX IMVI melanoma
OVCAR-3 ovarian = test system: OVCAR-3 ovarian
KM12 colon = test system: KM12 colon
HOP-62 NSCLC = test system: HOP-62 NSCLC
MOLT-4 leukemia = test system: MOLT-4 leukemia
HCT-116 colon = test system: HCT-116 colon

| Structure (SMILES) | TGI (SK-MEL-28 melanoma) [µM] | TGI (MCF7 breast) [µM] | TGI (SR leukemia) [µM] | TGI (SF-295 CNS) [µM] | TGI (SNB-19 CNS) [µM] | TGI (HT29 colon) [µM] | TGI (SK-OV-3 ovarian) [µM] | TGI (U251 CNS) [µM] | TGI (EKVX NSCLC) [µM] | TGI (SK-MEL-2 melanoma) [µM] | TGI (MDA-MB-435) [µM] | TGI (A549 NSCLC) [µM] | TGI (RPMI-8226 leukemia) [µM] | TGI (UACC-62 melanoma) [µM] | TGI (LOX IMVI melanoma) [µM] | TGI (OVCAR-3 ovarian) [µM] | TGI (KM12 colon) [µM] | TGI (HOP-62 NSCLC) [µM] | TGI (MOLT-4 leukemia) [µM] | TGI (HCT-116 colon) [µM] |
| --- | --- | --- | --- | --- | --- | --- | --- | --- | --- | --- | --- | --- | --- | --- | --- | --- | --- | --- | --- | --- |
| CC1=CC[C@H](C(C)C)C(C(O)[C@@H](C)O[Si](c2ccccc2)(c2ccccc2)C(C)(C)C)C1=O (some centres not stated) | > 100 | 44.2 | > 100 | 33.1 | 33.5 | 31.7 | 79.7 | 31.8 | 28.9 | 32 | 51.3 | 38.4 | 48 | 33.6 | 45.7 | 35.5 | 48.3 | 47.6 | > 100 | 28.7 |
| CCOP(=O)(OCC)/C(=C/NC(=S)c1ccncc1)C(=O)OC | – | > 100 | > 100 | > 100 | > 100 | > 100 | > 100 | > 100 | > 100 | > 100 | > 100 | > 100 | > 100 | > 100 | > 100 | > 100 | > 100 | > 100 | > 100 | > 100 |
| c1ccc(C2=NCCN2)c(C2=NCCN2)c1 | > 100 | > 100 | > 100 | > 100 | > 100 | > 100 | > 100 | > 100 | > 100 | > 100 | > 100 | > 100 | > 100 | > 100 | > 100 | > 100 | > 100 | > 100 | > 100 | > 100 |
| COc1cc(/C=C2\N=C(c3ccccc3)N(c3nc4cc(C)c(C)cc4s3)C2=O)ccc1O | > 100 | 39.1 | 57.8 | > 100 | > 100 | 99.1 | > 100 | > 100 | > 100 | > 100 | 52.1 | > 100 | > 100 | > 100 | > 100 | 65.3 | > 100 | > 100 | > 100 | 61.8 |
| CC(C)(C)OCC1NC(=O)[C@@H]2Cc3c([nH]c4ccccc34)C(c3ccccc3)N2C1=O (some centres not stated) | > 50 | > 50 | > 33 | > 50 | > 50 | > 50 | > 50 | > 50 | > 50 | > 50 | > 50 | > 50 | > 33.7 | > 50 | > 50 | > 50 | > 50 | > 50 | > 32.7 | > 50 |
| NC(N)=NS(=O)(=O)c1ccc(NNc2c3ccccc3nc3c(C(=O)Nc4ccc(S(=O)(=O)N=C(N)N)cc4)cccc23)cc1 | 89.6 | > 100 | > 100 | > 100 | > 100 | > 100 | > 100 | > 100 | 95.8 | > 100 | > 100 | > 100 | > 100 | > 100 | > 100 | > 100 | > 100 | > 100 | 80.4 | > 100 |
| CN(C)CCCNc1ccc2c(=O)n(CCN(C)C)c(=O)n3c4ccccc4c(=O)c1c23 | 2.57 | 0.565 | 2.96 | 1.69 | 3.02 | 0.907 | 4.9 | 2.15 | 3.02 | 2.52 | 0.885 | 10.5 | 0.595 | 1.56 | 0.343 | 3.35 | 1.4 | 5.91 | – | – |
| CCC(C(=O)C(=O)C(CC)P1(=O)OC(C)(C)CN1C(C)(C)C)P1(=O)OC(C)(C)CN1C(C)(C)C (configuration not stated) | > 100 | > 100 | > 100 | > 100 | > 100 | > 100 | > 100 | > 100 | > 100 | > 100 | > 100 | > 100 | > 100 | > 100 | > 100 | > 100 | > 100 | > 100 | 82.3 | > 100 |
| COc1ccc(-c2c3c(cc4cc5c(cc24)OCO5)C(=O)OC3)cc1OC | 9.38 | 31.4 | 1.7 | 0.922 | 52 | 6.55 | > 62.1 | 22 | > 75.6 | 4.91 | 11.5 | > 100 | 9.98 | 1.84 | 0.0663 | 18.8 | > 36 | 7.16 | 20.4 | 12.1 |
